Source: patent publication US4241052A, “Novel nitrosourea compounds and process for preparing the same” (Tanabe Seiyaku Co., Ltd., priority 1978, dated 1980)

Experiments:
leukemic cells = settings: Japanese Patent Publication No. 141815/1976; cited from earlier work
[1] = tested on: tumor cells of lymphoid leukemia L-1210; settings: tumor cells implanted intraperitoneally; U.S. Pat. No. 4086451 and Japanese publications; cited from earlier work
[2] = tested on: Ehrlich ascites carcinoma; experiment: Preventive effect against the growth of Ehrlich ascites carcinoma (Method A); type: in vivo, mice (ICR, female); settings: for inhibition in vivo at 1.56 mg/kg: 1.56 mg/kg/day i.p.; for inhibition in vivo at 6.25 mg/kg: 6.25 mg/kg/day i.p.; for inhibition in vivo at 100 mg/kg: 100 mg/kg/day i.p.; for inhibition in vivo at 400 mg/kg: 400 mg/kg/day i.p.; for minimal effective dose: 168 h, min dose, 100% inhibition, read-out: MED (Minimum Effective Dose)
Experimental: (§1) (A) Preventive effect against the growth of Ehrlich ascites tumor
(§2) 10^6 tumor cells of Ehrlich ascites carcinoma were inoculated intraperitoneally into a group of five femal mice (ICR mice, body weight: 19-23 g). A test compound was dissolved in a physiological saline solution and administered intraperitoneally to the mice. The administration of the test compound was began 24 hours after the inoculation of the tumor cells and performed once a day for 5 days. The volume of ascites in the treated mice were measured after 7 days of the experiment.

[3] = as above; type: in vivo, mice (ICR, female); settings: mouse, in vivo, ip; max dose, 100% inhibition without death; doses of the table in mg/kg/day; read-out: MTD (Maximum Tolerated Dose)
Experimental: as §1, §2

Leukemia L-1210 = experiment: Effect on life span of mice implanted with leukemic cells of L-1210 (Method B); type: in vivo, mice (BDF1, male); settings: 5 days
Experimental: (B) Effect on the life span of mice implanted with leukemic cells of L-1210
10^5 leukemic cells of L-1210 were inoculated intraperitoneally into a group of four male mice (BDF1 mice, body weight: 19-23 g). A test compound was dissolved in a physiological saline solution and administered intraperitoneally to the mice. The administration of the test compound was began 24 hours after the inoculation of the leukemic cells and performed once a day for 5 days. The survival days of the treated mice were observed.

[4] = Mus musculus, Ehrlich, ip, 120 h, 0.78 mg/kg/day i.p., 5 days, read-out: Inhibition ratio
[5] = Mus musculus, Ehrlich, ip, 120 h, 5 days, read-out: Inhibition ratio
[6] = Mus musculus, Ehrlich, ip, 120 h, 25 mg/kg/day i.p., 5 days, read-out: Inhibition ratio
[7] = Mus musculus, Ehrlich, ip, doses of the table in mg/kg/day
[8] = Mus musculus, Ehrlich, ip, 120 h, 0.39 mg/kg/day i.p., 5 days, read-out: Inhibition ratio
[9] = Mus musculus, Ehrlich, ip, 120 h, 0.19 mg/kg/day i.p., 5 days, read-out: Inhibition ratio

SMILES	Therapeutic index (MTD/MED) [2]	inhibition in vivo at 0.78 mg/kg [2, 4] [%]	inhibition in vivo at 1.56 mg/kg [2, 5] [%]	inhibition in vivo at 6.25 mg/kg [2, 5] [%]	inhibition in vivo at 25 mg/kg [2, 6] [%]	inhibition in vivo at 100 mg/kg [2, 5] [%]	minimal effective dose [2, 7] [mg/kg/day]	MTD at 168 h [3] [mg/kg/day]	60-day survivors (mice survived/mice used) (Leukemia L-1210; 25 mg/kg/day i.p.)	ILS (Leukemia L-1210; 25 mg/kg/day i.p.) [%]	Toxic (number of mice died/number of mice used) ([2]; 200 mg/kg/day i.p., 5 days)	inhibition in vivo at 0.39 mg/kg [2, 8] [%]	60-day survivors (mice survived/mice used) (Leukemia L-1210; 6.25 mg/kg/day i.p.)	ILS (Leukemia L-1210; 6.25 mg/kg/day i.p.) [%]	60-day survivors (mice survived/mice used) (Leukemia L-1210; 50 mg/kg/day i.p.)	ILS (Leukemia L-1210; 50 mg/kg/day i.p.) [%]	other results
O=NN(CCCl)C(=O)NC1O[C@H](CO)[C@@H](O[C@@H]2O[C@H](CO)[C@H](O)[C@H](O)[C@H]2O)[C@H](O)[C@H]1O (stereo partly drawn) [1-(2-chloroethyl)-1-nitroso-3-(D-lactosyl)urea]	–	–	–	–	–	–	–	–	–	–	–	–	–	–	–	–	anti-tumor activity against leukemic cells (leukemic cells): show anti-tumor activity
O=NN(CCCl)C(=O)NC1O[C@H](CO)[C@@H](O[C@H]2O[C@H](CO)[C@@H](O)[C@H](O)[C@H]2O)[C@H](O)[C@H]1O (stereo partly drawn) [1-(2-chloroethyl)-1-nitroso-3-(D-maltosyl)urea]	–	–	–	–	–	–	–	–	–	–	–	–	–	–	–	–	anti-tumor activity against leukemic cells (leukemic cells): show anti-tumor activity
O=NN(CCCl)C(=O)NC1O[C@H](CO)[C@@H](O)[C@H](O)[C@@H]1O (stereo partly drawn) [1-(2-chloroethyl)-1-nitroso-3-(D-mannopyranosyl)urea]	–	–	–	–	–	–	–	–	–	–	–	–	–	–	–	–	life span of mice implanted with L-1210 [1]: increase the life span
COc1ccc(CN(C(=O)N(CCCl)N=O)C2O[C@H](CO)[C@@H](O[C@H]3O[C@H](CO)[C@@H](O)[C@H](O)[C@H]3O)[C@H](O)[C@H]2O)cc1 (stereo partly drawn) [Compound 3, 1-(2-chloroethyl)-1-nitroso-3-(p-methoxybenzyl)-3-[O-α-D-glucopyranosyl-(1→4)-D-glucopyranosyl]urea]	256	23.1	100	100	100	100	1.56	400	0/4	50.7	–	–	–	–	–	–	Toxic (number of mice died/number of mice used) ([2]; 800 mg/kg/day i.p., 5 days): 5/5; inhibition in vivo at 400 mg/kg [2, 5]: 100%; 60-day survivors (mice survived/mice used) (Leukemia L-1210; 200 mg/kg/day i.p.): 2/4; ILS (Leukemia L-1210; 200 mg/kg/day i.p.): > 328.8%; 60-day survivors (mice survived/mice used) (Leukemia L-1210; 400 mg/kg/day i.p.): 4/4; ILS (Leukemia L-1210; 400 mg/kg/day i.p.): > 721.9%
O=NN(CCCl)C(=O)N(Cc1ccco1)C1O[C@H](CO)[C@@H](O[C@H]2O[C@H](CO)[C@@H](O)[C@H](O)[C@H]2O)[C@H](O)[C@H]1O (stereo partly drawn) [Compound 6, 1-(2-chloroethyl)-1-nitroso-3-furfuryl-3-[O-α-D-glucopyranosyl-(1→4)-D-glucopyranosyl]urea]	128	21.6	76.5	100	100	100	3.12	400	0/4	65.3	–	–	–	–	–	–	Toxic (number of mice died/number of mice used) ([2]; 800 mg/kg/day i.p., 5 days): 5/5; inhibition in vivo at 3.12 mg/kg ([2]; Mus musculus, Ehrlich, ip, 120 h, 3.12 mg/kg/day i.p., 5 days, read-out: Inhibition ratio): 100%; inhibition in vivo at 400 mg/kg [2, 5]: 100%; 60-day survivors (mice survived/mice used) (Leukemia L-1210; 100 mg/kg/day i.p.): 2/4; ILS (Leukemia L-1210; 100 mg/kg/day i.p.): > 351.4%; 60-day survivors (mice survived/mice used) (Leukemia L-1210; 200 mg/kg/day i.p.): 4/4; ILS (Leukemia L-1210; 200 mg/kg/day i.p.): > 733.3%
O=NN(CCCl)C(=O)N(CC1CC1)C1O[C@H](CO)[C@H](O)[C@H](O)[C@H]1O (stereo partly drawn) [Compound 8, 1-(2-chloroethyl)-1-nitroso-3-cyclopropylmethyl-3-(D-galactopyranosyl)urea]	128	100	100	100	100	100	0.78	100	4/4	> 650.0	3/5	21.1	0/4	53.8	4/4	> 650.0	–
O=NN(CCCl)C(=O)N(CC1CCCO1)C1O[C@H](CO)[C@H](O)[C@H](O)[C@H]1O (stereo partly drawn) [Compound 9, 1-(2-chloroethyl)-1-nitroso-3-tetrahydrofurfuryl-3-(D-galactopyranosyl)urea]	64	37.5	100	100	100	100	1.56	100	4/4	> 689.5	5/5	6.2	0/4	55.3	–	–	60-day survivors (mice survived/mice used) (Leukemia L-1210; 100 mg/kg/day i.p.): 4/4; ILS (Leukemia L-1210; 100 mg/kg/day i.p.): > 689.5%
O=NN(CCCl)C(=O)N(CC1CC1)C1OC[C@H](O)[C@H](O)[C@H]1O (stereo partly drawn) [Compound 10, 1-(2-chloroethyl)-1-nitroso-3-cyclopropylmethyl-3-(L-arabinopyranosyl)urea]	128	100	100	100	100	100	0.78	100	4/4	> 721.9	5/5	79.5	0/4	82.2	4/4	> 721.9	inhibition in vivo at 0.19 mg/kg [2, 9]: 17.9%
O=NN(CCCl)C(=O)N(Cc1cccs1)C1OC[C@H](O)[C@H](O)[C@H]1O (stereo partly drawn) [Compound 13, 1-(2-chloroethyl)-1-nitroso-3-(thiophen-2-yl-methyl)-3-(L-arabinopyranosyl)urea]	128	100	100	100	100	100	0.78	100	2/4	> 442.9	5/5	54	–	–	2/4	> 414.3	inhibition in vivo at 0.19 mg/kg [2, 9]: 18%; 60-day survivors (mice survived/mice used) (Leukemia L-1210; 12.5 mg/kg/day i.p.): 0/4; ILS (Leukemia L-1210; 12.5 mg/kg/day i.p.): 121.4%
O=NN(CCCl)C(=O)N[C@@H]1O[C@H](CO)[C@@H](O)[C@H](O)[C@H]1O [GANU, 1-(2-chloroethyl)-1-nitroso-3-(D-glucopyranosyl)urea, reference compound]	32	–	–	–	–	–	0.39	–	–	–	–	–	–	–	–	–	Inhibition ratio ([2]; 0.09 mg/kg/day i.p., 5 days): 4.2%; Inhibition ratio ([2]; 0.19 mg/kg/day i.p., 5 days): 79.2%; Inhibition ratio ([2]; 0.39 mg/kg/day i.p., 5 days): 100%; Inhibition ratio ([2]; 0.78 mg/kg/day i.p., 5 days): 100%; Inhibition ratio ([2]; 3.12 mg/kg/day i.p., 5 days): 100%; Toxic (number of mice died/number of mice used) ([2]; 25 mg/kg/day i.p., 5 days): 5/5; MTD (Maximum Tolerated Dose) ([2]; max dose, 100% inhibition without death, doses of the table in mg/kg/day, 10080 min): 12.5; life span of mice implanted with L-1210 [1]: increase the life span
